Tests used:
SARS-CoV-2 3CLpro = SARS-CoV-2 3CLpro (Severe acute respiratory syndrome coronavirus 2, UniProt P0DTD1); test: FRET based protease assay, SARS-CoV-2 3CL; assay type: biochemical, SARS-CoV-2 (strain BetaCoV/Wuhan/WIV04/2019)
MERS-CoV 3CLpro = MERS-CoV 3CLpro (Middle East respiratory syndrome-related coronavirus, UniProt K9N638); test: biochemical; details: MERS IC50, 75 nM MERS-CoV 3CLpro, 6 μM peptide 1 substrate, 25° C., 1.5 hrs, pH 7.5
Sequence of MERS-CoV 3CLpro (K9N638 3248-3553 limits assumed): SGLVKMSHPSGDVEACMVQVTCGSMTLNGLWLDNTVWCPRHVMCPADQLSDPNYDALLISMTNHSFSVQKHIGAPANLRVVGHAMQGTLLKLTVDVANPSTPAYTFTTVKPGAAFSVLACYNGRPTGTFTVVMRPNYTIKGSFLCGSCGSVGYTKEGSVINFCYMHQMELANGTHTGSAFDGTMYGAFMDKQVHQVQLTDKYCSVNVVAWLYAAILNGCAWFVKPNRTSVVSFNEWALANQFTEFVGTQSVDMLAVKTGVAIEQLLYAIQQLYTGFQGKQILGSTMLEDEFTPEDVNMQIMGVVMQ

Row | SMILES | IC50 (SARS-CoV-2 3CLpro) [µM] | IC50 (MERS-CoV 3CLpro) [µM]
1 | CC(C)C[C@@H]1NC(=O)[C@@H](C2CCCC2)CCC[C@H]2CNC(=O)[C@@H]2C[C@@H](C#N)NC1=O [Example 28] | 1 to 20 | 1 to 20
2 | CC(C)(C)COC(=O)N[C@H]1CCCC[C@H]2CNC(=O)[C@H]2C[C@@H](C#N)NC(=O)[C@@H]2[C@@H]3[C@H](CN2C1=O)C3(C)C [Example 106] | < 0.1 | 0.1 to 1
3 | N#C[C@@H]1C[C@H]2C(=O)NC[C@@H]2CCCCC(=O)N2C[C@@H]3CCC[C@@H]3[C@H]2C(=O)N1 [Example 26] | > 20 | > 20
4 | CC(C)C[C@@H]1NC(=O)[C@H](Cc2ccccc2)CCC[C@H]2CNC(=O)[C@@H]2C[C@@H](C=O)NC1=O [Example 21] | < 0.1 | 0.1 to 1
5 | CC(C)(C)C(=O)N[C@H]1CCCC[C@H]2CNC(=O)[C@H]2C[C@@H](C#N)NC(=O)[C@@H]2[C@H]3CCC[C@H]3CN2C1=O [Example 70] | < 0.1 | 0.1 to 1
6 | CC(C)(C)OC(=O)NN1CCCC[C@H]2CNC(=O)[C@H]2C[C@@H](C#N)NC(=O)[C@@H]2[C@@H]3[C@H](CN2C1=O)C3(C)C [Example 168] | 1 to 20 | 1 to 20
7 | CC(C)C[C@@H]1NC(=O)[C@@H](NC(=O)C(C)(C)C)CC/C=C\[C@H]2CNC(=O)[C@H]2C[C@@H](C#N)NC1=O [Example 59] | 0.1 to 1 | 1 to 20
8 | CC(C)C[C@@H]1NC(=O)[C@@H](OC(C)(C)C)CCC[C@H]2CNC(=O)[C@@H]2C[C@@H](C#N)NC1=O [Example 29] | > 20 | > 20
9 | CC(C)C[C@@H]1NC(=O)CCCCC[C@H]2CNC(=O)[C@@H]2C[C@@H](C=O)NC1=O [Example 32] | 0.1 to 1 | 0.1 to 1
10 | CC1(C(=O)N[C@H]2CCCC[C@H]3CNC(=O)[C@H]3C[C@@H](C#N)NC(=O)[C@@H]3[C@@H]4[C@H](CN3C2=O)C4(C)C)CCC1 [Example 118] | < 0.1 | 0.1 to 1
11 | N#C[C@@H]1C[C@@H]2C(=O)NC[C@@H]2CCCC[C@H](NC(=O)C2(C(F)(F)F)CC2)C(=O)N2CCC3(CC3)C[C@H]2C(=O)N1 [Example 151] | < 0.1 | 0.1 to 1
12 | CC(C)C[C@@H]1NC(=O)[C@@H](OC(C)(C)C)CCC[C@H]2CNC(=O)[C@@H]2C[C@@H](C=O)NC1=O [Example 20] | 1 to 20 | > 20
13 | N#C[C@@H]1C[C@@H]2C(=O)NC[C@@H]2/C=C/CC[C@H](NC(=O)C(F)(F)F)C(=O)N2C[C@@H]3CCC[C@@H]3[C@H]2C(=O)N1 [Example 101] | < 0.1 | 0.1 to 1
14 | CC(C)(C)C[C@@H]1NC(=O)[C@@H](NC(=O)OC(C)(C)C)CCCC[C@H]2CNC(=O)[C@H]2C[C@@H](C#N)NC1=O [Example 60] | < 0.1 | 0.1 to 1
15 | CC1(C)[C@@H]2[C@H]3C(=O)N[C@H](C#N)C[C@@H]4C(=O)NC[C@@H]4/C=C/CC[C@H](NC(=O)C4CC(F)(F)C4)C(=O)N3C[C@@H]21 [Example 83] | < 0.1 | < 0.1
16 | CC(C)(C)C[C@@H]1NC(=O)[C@@H](NC(=O)C(C)(C)C)CCCC[C@H]2CNC(=O)[C@H]2C[C@@H](C#N)NC1=O [Example 53] | < 0.1 | 0.1 to 1
17 | CC(C)(C)OC(=O)N[C@H]1CCCC[C@H]2CNC(=O)[C@H]2C[C@@H](C#N)NC(=O)[C@@H]2[C@@H]3[C@H](CN2C1=O)C3(C)C [Example 72] | < 0.1 | < 0.1
18 | CC(C)C[C@@H]1NC(=O)[C@H](Cc2ccccc2)CCC[C@@H]2CNC(=O)[C@@H]2C[C@@H](C=O)NC1=O [Example 11] | 1 to 20 | 1 to 20
19 | CCO[C@@H]1C[C@H]2C(=O)N[C@H](C#N)C[C@@H]3C(=O)NC[C@@H]3CCCC[C@H](NC(=O)OC(C)(C)C)C(=O)N2C1 [Example 144] | < 0.1 | 1 to 20

Row | SMILES | IC50 (SARS-CoV-2 3CLpro) [µM] | IC50 (MERS-CoV 3CLpro) [µM]
20 | CC(C)C[C@@H]1NC(=O)CCCCCC[C@@H]2CNC(=O)[C@@H]2C[C@@H](C=O)NC1=O [Example 46] | 1 to 20 | 1 to 20
21 | CC(C)C[C@@H]1NC(=O)CCCCC[C@@H]2CCNC(=O)[C@H]2C[C@@H](C=O)NC1=O [Example 33] | > 20 | > 20
22 | CC(C)C[C@@H]1NC(=O)[C@@H](Cc2ccccc2)CCCC[C@H]2CNC(=O)[C@H]2C[C@@H](C=O)NC1=O [Example 36] | < 0.1 | 0.1 to 1
23 | CC(C)(C)OC(=O)N[C@@H]1CCCC[C@H]2CNC(=O)[C@H]2C[C@@H](C#N)NC(=O)[C@@H]2[C@@H]3[C@H](CN2C1=O)C3(C)C [Example 128] | > 20 | > 20
24 | CC(C)C[C@@H]1NC(=O)[C@@H](Cc2ccc(F)cc2)CCCC[C@@H]2CNC(=O)[C@@H]2C[C@@H](C#N)NC1=O [Example 42] | 1 to 20 | 1 to 20
25 | CC(C)C[C@@H]1NC(=O)[C@@H](Cc2ccccc2)CCCCC[C@H]2CNC(=O)[C@H]2C[C@@H](C#N)NC1=O [Example 50] | 1 to 20 | 1 to 20
26 | CC(C)C[C@@H]1NC(=O)[C@@H](N(C)C(=O)OC(C)(C)C)CCC[C@H]2CNC(=O)[C@@H]2C[C@@H](C#N)NC1=O [Example 22] | > 20 | > 20
27 | CC(C)(C)OC(=O)N[C@H]1CCCC[C@H]2CNC(=O)[C@H]2C[C@@H](C#N)NC(=O)[C@@H]2CC(F)(F)CN2C1=O [Example 131] | 0.1 to 1 | 0.1 to 1
28 | CC1(C)[C@@H]2[C@H]3C(=O)N[C@H](C#N)C[C@@H]4C(=O)NC[C@@H]4CCCC[C@H](NC(=O)C4CC(F)(F)C4)C(=O)N3C[C@@H]21 [Example 62] | < 0.1 | < 0.1
29 | CC(C)(C)OC(=O)N[C@H]1CC/C=C/[C@H]2CNC(=O)[C@H]2C[C@@H](C#N)NC(=O)[C@@H]2[C@@H]3[C@H](CN2C1=O)C3(C)C [Example 92] | < 0.1 | < 0.1
30 | CC(C)C[C@@H]1NC(=O)[C@@H](NC(=O)OC(C)(C)C)CCC[C@H]2CNC(=O)[C@@H]2C[C@@H](C=O)NC1=O [Example 19] | < 0.1 | 0.1 to 1
31 | CC1(C)[C@@H]2[C@H]3C(=O)N[C@H](C#N)C[C@@H]4C(=O)NC[C@@H]4CCCC[C@H](NC(=O)c4cc(C(F)(F)F)on4)C(=O)N3C[C@@H]21 [Example 153] | < 0.1 | 0.1 to 1
32 | CC1(C)[C@@H]2[C@H]3C(=O)N[C@H](C#N)C[C@@H]4C(=O)NC[C@@H]4CCCC[C@H](NS(=O)(=O)C4(C)CC4)C(=O)N3C[C@@H]21 [Example 159] | < 0.1 | < 0.1
33 | CC1(C)[C@@H]2[C@H]3C(=O)N[C@H](C#N)C[C@@H]4C(=O)NC[C@@H]4CCCC[C@H](NC(=O)c4ccc(Cl)c(Cl)c4)C(=O)N3C[C@@H]21 [Example 120] | < 0.1 | < 0.1
34 | CC(C)C[C@@H]1NC(=O)CCCCC[C@H]2CNC(=O)[C@H]2C[C@@H](C#N)NC1=O [Example 38] | 1 to 20 | > 20
35 | CC(C)(C)OC(=O)N[C@H]1COCCC[C@H]2CNC(=O)[C@H]2C[C@@H](C#N)NC(=O)[C@@H]2[C@@H]3[C@H](CN2C1=O)C3(C)C [Example 102] | < 0.1 | 0.1 to 1
36 | N#C[C@@H]1C[C@@H]2C(=O)NC[C@@H]2CCCC[C@H](NC(=O)C2CC(F)(F)C2)C(=O)N2C[C@@H]3CCC[C@@H]3[C@H]2C(=O)N1 [Example 84] | < 0.1 | 0.1 to 1
37 | CC(C)(C)OC(=O)N[C@H]1CCCC[C@H]2CNC(=O)[C@H]2C[C@@H](C#N)NC(=O)[C@H](CC2CCCC2)NC1=O [Example 137] | < 0.1 | 1 to 20

Source: US20260325540A1 (priority 2023, published 2026)
